Test [1] has as its system SH-SY5Y human neuroblastoma cells. Put plainly: Confocal microscopy of uptake and intracellular localization. The settings on record: for intracellular HF488 fluorescence (uptake) after 30 min: 500 nM monomeric peptide in medium, colocalized with endocytosis marker FM 4–64; for intracellular HF488 fluorescence (uptake) after 30 min / intracellular localization after 24 hr: confocal fluorescence; for intracellular localization after 24 hr: 500 nM peptide 24 hr, then 1 hr with 100 nM LysoTracker red; for uptake at 4°C: 1 hr at 4°C (inhibits endocytosis) compared with 37°C, cells washed before confocal imaging. The class given is cell-based. On the procedure:
Aβ peptides have been reported to be internalized into a variety of cell types, including neurons ([Burdick et al., 1997; Friedrich et al., 2010; Hu et al., 2009; Kaminski Schierle et al., 2011b; McGuire et al., 2012]). To characterize the uptake and intracellular localization of the peptides under the conditions used in our study, we added aliquots of monomeric ^HF488Aβ(1–40) or ^HF488Aβ(1–42) to cultures of SH-SY5Y human neuroblastoma cells to give a total peptide concentration of 500 nM in the cellular medium. […] The neuronal cells were also incubated for 1 hr at 37°C and at 4°C to compare uptake under conditions that, respectively, permit or inhibit endocytosis.
Human neuroblastoma cells (SH-SY5Y) were grown in 1:1 minimal essential medium (MEM) and nutrient mixture F-12 Ham (Sigma-Aldrich) with sodium bicarbonate, including 15% heat-inactivated fetal bovine serum, 1% MEM non-essential amino acids, 2 mM […], 1% penicillin-streptomycin (10,000 U/ml K1), and 0.1% fungizone (amphotericin B, […] K1) (Life Technologies). Cells were plated 1 day prior to experiments in glass-bottomed culture dishes (MatTek) at a density of 50,000 cells/14-mm dish. All samples were washed once in CO2-independent, serum- and phenol red-free medium (prepared as above but with exclusion of serum and addition of 30 mM HEPES and B12 supplement [Gibco]). All experiments with cells were performed in at least duplicates and repeated at least three times. The Aβ concentration was 500 nM in all experiments.
All uptake and colocalization experiments were carried out with the HF488-labeled Aβ peptides using a Leica SP5 confocal microscope (Leica Microsystems). For colocalization with FM 4–64 (Life Technologies), 5 μg/ml of the dye was added together with the peptide, and images were recorded after 1 hr of incubation. Both dyes were excited by the 488-nm laser line. HF488 emission was collected from 520–580 nm and FM 4–64 emission between 700–800 nm. For colocalization with LysoTracker red (Life Technologies), cells were incubated with HF488-labeled peptide for 24 hr, washed once with serum-free medium, and thereafter incubated for 1 hr with 100 nM LysoTracker red before images were recorded. LysoTracker red was excited using the […] laser line, and emission was collected between 700–800 nm. Sequential acquisition was used in all experiment to avoid bleed-through and cross-excitation. Cellular uptake at 4°C was assessed by keeping the cells in a cold room during incubation. The cells were washed prior to imaging to avoid uptake while observing the cells on the microscope.

In test [2] the test system is SH-SY5Y cells. Put plainly: Live cell FLIM of intracellular aggregation. The class given is cell-based, human. As to conditions: 500 nM peptide in culture medium; for lag phase of intracellular aggregation: 0–48 hr, live cell FLIM (Figure 4D). The text has this: Having established that the fluorescence lifetime of HF488 acts as a reporter of amyloid formation of Aβ(1–40) and Aβ(1–42), we set out to investigate how the aggregation state of each of the two peptide isoforms is affected by its cellular uptake and accumulation in acidic organelles in SH-SY5Y cells. Using FLIM, we observed that there are no significant differences (p = 0.95, Table S1) in the fluorescence lifetimes of extracellular and internalized ^HF488Aβ(1–40) during the first 6 hr after application of 500 nM peptide to the culture medium (Figures 4A and 4D), indicating the presence of similar ^HF488Aβ(1–40) species within the cells as those applied to the extracellular environment. […] We then examined the cells treated with the same concentration of ^HF488Aβ(1–40) for 24 and 48 hr (Figures 4C and 4D), washing them prior to imaging to remove any extracellular fluorescence. […] The difference compared with the extracellular starting value, however, is statistically significant first after 48 hr (p = 0.0032, Table S1). […]
All FLIM experiments were carried out using HF488-labeled Aβ peptides, and images were recorded by time-correlated single photon counting (TCSPC) using a confocal microscopy platform built on an Olympus Fluoview FV300 confocal scan unit. […] The excitation beam was reflected onto the sample with a 20/80 broad bandwidth coated beam splitter so that 20% of the excitation light passed on to the sample and 80% of the fluorescence signal was reflected toward the confocal pinhole. The fluorescence light was passed through a 515-nm Semrock long-pass filter (Laser 2000) and passed onto a fast photomultiplier tube (PMC-100, Becker & Hickl). Lifetimes were recorded using TCSPC circuitry (SPC-830, Becker & Hickl). […] The instrument response was measured using reflected light from either a coverslip or a coated mirror. […]

“And” between values parts separate entries of the source, which are not always exact repeats. Equal entries are not always repeated.

As to “^HF488Aβ(1–40): Synthetic 40-residue amyloid β peptide labeled at the N terminus with Hilyte Fluor 488, purchased from Anaspec”, in test [1], the “intracellular HF488 fluorescence (uptake) after 30 min” value is reported as “observed readily” and the “intracellular localization after 24 hr” value is given as “colocalize with LysoTracker red”. Also, in test [1] (500 nM peptide, 10 minutes, confocal fluorescence with Z-scanning (Figure S3)), the “cellular uptake after 10 minutes” value is reported as “vesicular uptake”. In addition, the “uptake at 4°C” value in test [1] (500 nM peptide) is given as “did not internalize any detectible quantities”. Besides, the “lag phase of intracellular aggregation” value in test [2] was “appears to exhibit a lag phase”. In addition, the “endpoint value of intracellular fluorescence lifetime” value in test [2] (endpoint (48h, p = 0.22 Table S2), cells washed once, live cell FLIM) is 3.35 ± 0.2 ns and 3.31 ± 0.2 ns.
Consider “^HF488Aβ(1–42): Synthetic 42-residue amyloid β peptide labeled at the N terminus with Hilyte Fluor 488, purchased from Anaspec”, for which, in test [1], the “intracellular HF488 fluorescence (uptake) after 30 min” value was “observed readily” and the “intracellular localization after 24 hr” value is recorded as “colocalize with LysoTracker red”. Also, in test [1] (500 nM peptide), the “uptake at 4°C” value is given as “did not internalize any detectible quantities”. Besides, in test [2], the “lag phase of intracellular aggregation” value is “shows no such effect”.

For the origin of these results see publication PMC4067742, “Direct Observations of Amyloid β Self-Assembly in Live Cells Provide Insights into Differences in the Kinetics of Aβ(1–40) and Aβ(1–42) Aggregation” (Chemistry & Biology, 2014).
